Data reported in patent US11040987B2 (TenNor Therapeutics Limited, priority 2019, dated 2021).
In brackets after ≈: the same amount, converted by molar mass. Like-named read-outs stand apart in the source and are kept apart here.

Tests used:
[1] = system: A. baumannii ATCC 19606; experiment: MIC determination, broth microdilution, ESKAPE panel; type: cell-based; conditions: Acinetobacter baumannii
Procedure: (§1) Minimum inhibitory concentration (MIC) is determined by a broth microdilution method according to the recommendation of the Clinical and Laboratory Standards Institute (CLSI) with minor modification. […] Strains of an ESKAPE panel (E. faecium ATCC 700221, S. aureus ATCC 29213, K. pneumoniae ATCC 43816, A. baumannii ATCC 19606, P. aeruginosa ATCC 27853 and Escherichia coli ATCC 25922) were obtained originally from the American Type Culture Collection (ATCC) and used for MIC determinations of compounds. The bacteria inoculum in the test is […].

[2] = system: E. faecium ATCC 700221; experiment: as above; type: cell-based; conditions: Enterococcus faecium
Procedure: as §1

[3] = system: Escherichia coli ATCC 25922; experiment: as above; type: cell-based
Procedure: as §1

[4] = system: K. pneumoniae ATCC 43816; experiment: as above; type: cell-based; conditions: Klebsiella pneumoniae
Procedure: as §1

[5] = system: P. aeruginosa ATCC 27853; experiment: as above; type: cell-based; conditions: Pseudomonas aeruginosa
Procedure: as §1

[6] = system: S. aureus ATCC 29213; experiment: as above; type: cell-based; conditions: Staphylococcus aureus
Procedure: as §1

[7] = system: A.b TNP 41704; experiment: MIC against A. baumannii clinical isolates, alone and in combination with antibiotics; type: cell-based; conditions: for MIC: Acinetobacter baumannii
[8] = system: A.b TNP 41708; experiment: as above; type: cell-based; conditions: for MIC: Acinetobacter baumannii, TNP41708, read-out: MIC A.b TNP 41708
Procedure: as §1

[9] = system: A.b TNP 41709; experiment: as above; type: cell-based; conditions: for MIC: Acinetobacter baumannii
[10] = target: T1, AmpC_PA (Pseudomonas aeruginosa, UniProt P24735); experiment: β-lactamase inhibition, spectrophotometric assay of nitrocefin hydrolysis; type: biochemical, P. aeruginosa
T1 construct: made in house
T1 sequence (P24735 27-397): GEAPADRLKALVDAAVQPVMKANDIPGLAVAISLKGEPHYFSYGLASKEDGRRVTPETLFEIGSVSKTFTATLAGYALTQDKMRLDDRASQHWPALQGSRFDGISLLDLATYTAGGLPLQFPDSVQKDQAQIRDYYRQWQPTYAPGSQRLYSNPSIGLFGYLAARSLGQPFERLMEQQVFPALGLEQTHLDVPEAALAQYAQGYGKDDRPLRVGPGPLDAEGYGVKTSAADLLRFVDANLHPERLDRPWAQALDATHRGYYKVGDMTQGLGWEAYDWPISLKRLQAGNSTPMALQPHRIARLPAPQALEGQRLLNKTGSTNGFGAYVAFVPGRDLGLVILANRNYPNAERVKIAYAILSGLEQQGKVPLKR
Source text: (§2) Hydrolytic inactivation of the β-lactam antibiotics by β-lactamases is the most widespread drug resistant mechanism and the most challenge clinically among Gram-negative bacterial pathogens. Based on the amino acid sequences, the β-lactamases are grouped into four classes (Ambler classification), of which A, C and D are serine hydrolases and B encompasses metallo-β-lactamases. The IC50 of selected derivatives disclosed herein (identified with reference to example number) plus six reference β-lactam or β-lactamase inhibitors were determined against 7 representative β-lactamases of various classes in a standard spectrophotometric assay of nitrocefin hydrolysis. The assay is performed in 384-well plate. The seven recombinant β-lactamases AmpC_AB (from A. baumannii), AmpC_PA (from P. aeruginosa), KPC-2, NDM-1, IMP-1, VIM-1 and OXA 24/40) are expressed and purified. The reaction buffer for class A, C and D enzymes is 100 mM Na2HPO4—KH2PO4 (pH 7.1) plus 0.005% Tween-20, and for class B enzymes 10 μM ZnSO4 is added. […] The 50 μL of reaction solution composed of 2 pM of β-lactamase, 200 μM of nitrocefin and series of 3-fold dilutions of test or control compounds are added by Cybio SELMA system into 384-plate and incubated in dark at 25° C. for 2 hours. The OD490 is read in MC SpectraMax Plus384 plate reader.

[11] = target: AmpC_AB (Acinetobacter baumannii, UniProt Q6DRA1); experiment: as above; type: biochemical
Source text: as §2

[12] = target: T2, IMP-1 (Serratia marcescens, UniProt P52699); experiment: as above; type: biochemical
T2 construct: made in house
T2 sequence (P52699 19-246, looked up, species assumed): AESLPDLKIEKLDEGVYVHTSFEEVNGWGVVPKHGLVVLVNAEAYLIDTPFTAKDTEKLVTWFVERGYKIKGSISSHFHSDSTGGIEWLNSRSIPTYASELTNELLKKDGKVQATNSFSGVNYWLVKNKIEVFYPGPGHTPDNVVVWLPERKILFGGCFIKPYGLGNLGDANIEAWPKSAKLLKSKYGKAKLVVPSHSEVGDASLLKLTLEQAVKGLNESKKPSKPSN
Source text: as §2

[13] = target: T3, KPC-2 (Klebsiella pneumoniae, UniProt Q9F663); experiment: as above; type: biochemical
T3 construct: made in house
T3 sequence (Q9F663 25-293, looked up, species assumed): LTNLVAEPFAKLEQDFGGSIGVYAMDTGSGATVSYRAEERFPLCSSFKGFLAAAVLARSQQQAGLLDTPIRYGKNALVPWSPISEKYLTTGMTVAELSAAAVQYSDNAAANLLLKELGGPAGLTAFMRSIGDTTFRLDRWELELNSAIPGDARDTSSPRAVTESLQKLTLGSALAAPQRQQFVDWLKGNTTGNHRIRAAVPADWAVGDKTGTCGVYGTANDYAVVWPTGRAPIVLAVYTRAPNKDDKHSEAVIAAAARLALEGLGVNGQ
Source text: as §2

[14] = target: T4, NDM-1 (Klebsiella pneumoniae, UniProt C7C422); experiment: as above; type: biochemical
T4 construct: made in house
T4 sequence (C7C422 29-270, looked up, species assumed): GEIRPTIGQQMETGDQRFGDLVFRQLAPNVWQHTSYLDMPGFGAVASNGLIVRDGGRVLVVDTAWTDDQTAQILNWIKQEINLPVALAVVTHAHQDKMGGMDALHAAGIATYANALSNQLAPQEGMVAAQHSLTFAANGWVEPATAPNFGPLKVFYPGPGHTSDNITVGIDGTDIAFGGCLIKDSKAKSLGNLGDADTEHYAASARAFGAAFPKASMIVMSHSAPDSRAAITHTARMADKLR
Source text: as §2

[15] = target: T5, OXA 24/40 (Acinetobacter baumannii, UniProt Q8RLA6); experiment: as above; type: biochemical
T5 construct: made in house
T5 sequence (Q8RLA6 22-275): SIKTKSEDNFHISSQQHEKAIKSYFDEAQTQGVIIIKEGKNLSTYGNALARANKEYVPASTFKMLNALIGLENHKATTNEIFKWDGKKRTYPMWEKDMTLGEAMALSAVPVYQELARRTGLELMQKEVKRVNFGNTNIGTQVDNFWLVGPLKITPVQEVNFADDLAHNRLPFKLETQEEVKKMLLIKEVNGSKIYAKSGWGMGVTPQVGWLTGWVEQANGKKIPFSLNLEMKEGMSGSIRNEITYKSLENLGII
Source text: as §2

[16] = target: T6, VIM-1 (Pseudomonas aeruginosa, UniProt A0A0F7KYQ8); experiment: as above; type: biochemical
T6 construct: made in house
Source text: as §2

[17] = system: Pseudomonas aeruginosa; conditions: including carbapenem-resistant strains; cited from earlier work
[18] = system: Acinetobacter baumannii; conditions: including carbapenem-resistant strains; cited from earlier work
[19] = ATCC19606, iron-depleted cation-adjusted Mueller-Hinton broth, 2,2-dipyridyl 160 μM, 37° C., 18-20 hours, read-out: MIC A. baumannii ATCC 19606
[20] = ATCC700221, iron-depleted cation-adjusted Mueller-Hinton broth, 2,2-dipyridyl 160 μM, 37° C., 18-20 hours, read-out: MIC E. faecium ATCC 700221
[21] = ATCC25922, iron-depleted cation-adjusted Mueller-Hinton broth, 2,2-dipyridyl 160 μM, 37° C., 18-20 hours, read-out: MIC E. coli ATCC 25922
[22] = ATCC43816, iron-depleted cation-adjusted Mueller-Hinton broth, 2,2-dipyridyl 160 μM, 37° C., 18-20 hours, read-out: MIC K. pneumoniae ATCC 43816
[23] = ATCC27853, iron-depleted cation-adjusted Mueller-Hinton broth, 2,2-dipyridyl 160 μM, 37° C., 18-20 hours, read-out: MIC P. aeruginosa ATCC 27853
[24] = ATCC29213, iron-depleted cation-adjusted Mueller-Hinton broth, 2,2-dipyridyl 160 μM, 37° C., 18-20 hours, read-out: MIC S. aureus ATCC 29213
[25] = TNP41704, Compounds alone, read-out: MIC A.b TNP 41704
[26] = TNP41709, Compounds alone, read-out: MIC A.b TNP 41709
[27] = Class C β-lactamase, 200 μM nitrocefin, 25° C., 2 hours, read-out: IC50 AmpC_AB
[28] = class B β-lactamase, 10 μM ZnSO4, 200 μM nitrocefin, 25° C., 2 hours, read-out: IC50 IMP-1
[29] = class A β-lactamase, 200 μM nitrocefin, 25° C., 2 hours, read-out: IC50 KPC-2
[30] = class B β-lactamase, 10 μM ZnSO4, 200 μM nitrocefin, 25° C., 2 hours, read-out: IC50 NDM-1
[31] = class B β-lactamase, 10 μM ZnSO4, 200 μM nitrocefin, 25° C., 2 hours, read-out: IC50 VIM-1

| SMILES | MIC [1, 19] [µg/mL] | MIC [2, 20] [µg/mL] | MIC [3, 21] [µg/mL] | MIC [4, 22] [µg/mL] | MIC [5, 23] [µg/mL] | MIC [6, 24] [µg/mL] | MIC [7, 25] [µg/mL] | MIC A.b TNP 41704 ([7]; Compounds + meropenem (1:1)) [µg/mL] | MIC A.b TNP 41704 ([7]; Compounds + sulbactam (1:1)) [µg/mL] | MIC [8] [µg/mL] | MIC A.b TNP 41708 ([8]; Compounds + meropenem (1:1)) [µg/mL] | MIC A.b TNP 41708 ([8]; Compounds + sulbactam (1:1)) [µg/mL] | MIC [9, 26] [µg/mL] | MIC A.b TNP 41709 ([9]; Compounds + meropenem (1:1)) [µg/mL] | MIC A.b TNP 41709 ([9]; Compounds + sulbactam (1:1)) [µg/mL] | IC50 [10] [µM] | IC50 [11, 27] [µM] | IC50 [12, 28] [µM] | IC50 [13, 29] [µM] | IC50 [15] [µM] | further results |
| --- | --- | --- | --- | --- | --- | --- | --- | --- | --- | --- | --- | --- | --- | --- | --- | --- | --- | --- | --- | --- | --- |
| C[C@]1(/C=N/NC(=O)C2CCN(C(=O)c3ccc(O)c(O)c3Cl)C2)[C@H](C(=O)O)N2C(=O)C[C@H]2S1(=O)=O (stereo partly drawn) [Example 38, (2S,3R,5R)-3-((E)-(2-(1-(2-chloro-3,4-dihydroxybenzoyl)pyrrolidine-3-carbonyl)hydrazono)methyl)-3-methyl-7-oxo-4-thia-1-azabicyclo[3.2.0]heptane-2-carboxylic acid 4,4-dioxide] | 8 (≈ 15.1 µM) | > 128 | > 128 | 32 (≈ 60.5 µM) | > 128 | 128 (≈ 242 µM) | > 128 | 4 | 4 | > 128 | 4 | 8 | > 128 | 2 | 8 | 2.38 | 7.62 | > 200 | > 200 | 5.93 | IC50 [14, 30]: > 200 µM; IC50 [16, 31]: > 200 µM |
| C[C@]1(/C=N/NC(=O)CNC(=O)c2ccc(O)c(O)c2)[C@H](C(=O)O)N2C(=O)C[C@H]2S1(=O)=O [Example 64, (2S,3R,5R)-3-((E)-(2-(2-(3,4-dihydroxybenzamido)acetyl)hydrazono)methyl)-3-methyl-7-oxo-4-thia-1-azabicyclo[3.2.0]heptane-2-carboxylic acid 4,4-dioxide] | 8 (≈ 17.6 µM) | > 128 | > 128 | 128 (≈ 282 µM) | > 128 | 64 (≈ 141 µM) | > 128 | 2 | 4 | > 128 | 4 | 8 | > 128 | 2 | 4 | 0.641 | 0.474 | > 200 | > 200 | 5.77 | IC50 [14, 30]: > 200 µM; IC50 [16, 31]: > 200 µM |
| CC(C)(O/N=C(\C(=O)N[C@@H]1C(=O)N2C(C(=O)[O-])=C(C[N+]3(CCNC(=O)c4ccc(O)c(O)c4Cl)CCCC3)CS[C@H]12)c1csc(N)n1)C(=O)O [Cefiderocol] |  |  |  |  |  |  |  |  |  |  |  |  |  |  |  |  |  |  |  |  | antibacterial activity against Pseudomonas aeruginosa [17]: potent antibacterial activity; antibacterial activity against Acinetobacter baumannii [18]: potent antibacterial activity |
| C[C@]1(COC(=O)NNC(=O)c2ccc(O)c(O)c2Cl)[C@H](C(=O)O)N2C(=O)C[C@H]2S1(=O)=O [Example 70, (2S,3R,5R)-3-(((2-(2-chloro-3,4-dihydroxybenzoyl)hydrazinecarbonyl)oxy)methyl)-3-methyl-7-oxo-4-thia-1-azabicyclo[3.2.0]heptane-2-carboxylic acid 4,4-dioxide] | 1 (≈ 2.09 µM) | > 128 | > 128 | > 128 | > 128 | > 128 | 8 | 8 | 4 | 16 | 8 | 8 | 8 | 4 | 4 | 9.14 | 7.18 | > 200 | 140 | 29.6 | activity against KPC-2 of class A (in words) ([13]; text summary of Table 4): weak activity; IC50 [14, 30]: > 200 µM; IC50 [16, 31]: > 200 µM |
| C[C@]1(/C=N/NC(=O)c2ccc(O)c(O)c2)[C@H](C(=O)O)N2C(=O)C[C@H]2S1(=O)=O [Example 5, (2S,3R,5R)-3-((E)-(2-(3,4-dihydroxybenzoyl)hydrazono)methyl)-3-methyl-7-oxo-4-thia-1-azabicyclo[3.2.0]heptane-2-carboxylic acid 4,4-dioxide] | 4 (≈ 10.1 µM) | > 128 | 64 (≈ 161 µM) | 32 (≈ 80.5 µM) | > 128 | 128 (≈ 322 µM) | > 128 | 4 | 4 | > 128 | 4 | 8 | 32 | 2 | 4 | 1.72 | 1.04 | > 200 | > 200 | 11.6 | IC50 [14, 30]: > 200 µM; IC50 [16, 31]: > 200 µM |
| CC1(C)[C@H](C(=O)O)N2C(=O)C[C@H]2S1(=O)=O [Sulbactam, reference compound] |  |  |  |  |  |  |  |  |  | 32 |  |  |  |  |  | 10.3 |  |  |  | > 200 | MIC ([1]; ATCC19606, read-out: MIC A. baumannii ATCC 19606): 0.5 µg/mL (≈ 2.14 µM); MIC ([2]; ATCC700221, read-out: MIC E. faecium ATCC 700221): > 128 µg/mL; MIC ([3]; ATCC25922, read-out: MIC E. coli ATCC 25922): 32 µg/mL (≈ 137 µM); MIC ([4]; ATCC43816, read-out: MIC K. pneumoniae ATCC 43816): 64 µg/mL (≈ 274 µM); MIC ([5]; ATCC27853, read-out: MIC P. aeruginosa ATCC 27853): > 128 µg/mL; MIC ([6]; ATCC29213, read-out: MIC S. aureus ATCC 29213): > 128 µg/mL; MIC ([7]; TNP41704, read-out: MIC A.b TNP 41704): 8 µg/mL; MIC ([9]; TNP41709, read-out: MIC A.b TNP 41709): 32 µg/mL; IC50 [11]: 10.3 µM; IC50 [12]: > 200 µM; IC50 [13]: 53.4 µM; IC50 [14]: > 200 µM; IC50 [16]: > 200 µM |
